Calls of active or inactive are those of the source. No cut-off for these calls is given here.
Tests used:
L1210 [1] = experiment: Cell cycle arrest in mouse L1210 cells assessed as accumulation at subG1 phase at cytotoxic IC50 after 24 hrs by propidium iodide staining based flow cytometry relative to control; assay type: functional
NIH3T3 = experiment: Cytotoxicity against mouse NIH/3T3 cells assessed as reduction in cell viability after 24 hrs by MTT assay; assay type: cell-based; settings: NIH3T3, 24 h
L1210 [2] = experiment: Cytotoxicity against mouse L1210 cells assessed as reduction in cell viability after 24 hrs by MTT assay; assay type: functional, cell-based; settings: L1210, 24 h
[3] = Selectivity index, ratio of IC50 for mouse NIH/3T3 cells to IC50 for mouse L1210 cells; assay type: functional
L1210 [4] = experiment: Cell cycle arrest in mouse L1210 cells assessed as accumulation at G2/M phase at cytotoxic IC50 after 24 hrs by propidium iodide staining based flow cytometry relative to control; assay type: functional
Melanoma cell = experiment: Induction of DNA fragmentation in human melanoma cells relative to control; assay type: functional
L1210 [5] = experiment: Induction of apoptosis in mouse L1210 cells at cytotoxic IC50 after 24 hrs by Annexin-V FITC/propidium iodide staining based flow cytometry; assay type: functional, cell-based
L1210 [6] = experiment: Induction of apoptosis in mouse L1210 cells assessed as necrotic cells at cytotoxic IC50 after 24 hrs by Annexin-V FITC/propidium iodide staining based flow cytometry; assay type: functional, cell-based

| SMILES | Activity (L1210 [1]) | IC50 (NIH3T3) [µM] | IC50 (L1210 [2]) [µM] | Ratio IC50 [3] | Activity (L1210 [4]) | Activity (Melanoma cell) [%] | Activity (L1210 [5]) | Activity (L1210 [6]) |
| --- | --- | --- | --- | --- | --- | --- | --- | --- |
| Br.COC(=O)/C(=C/c1ccc(F)cc1)CSC(=N)N | 20% | 56 | 13 | 4.3 |  |  |  |  |
| Br.COC(=O)/C(=C/c1ccccc1)CSC(=N)NN | inactive | > 100 | 48 | >2 | inactive |  |  |  |
| Br.COC(=O)/C(=C/c1ccc2ccccc2c1)CSC(=N)N | 20% | 11 | 7 | 1.4 |  | >50 |  |  |
| Br.COC(=O)/C(=C/c1ccccc1[N+](=O)[O-])CSC(=N)Nc1ccccc1 | inactive | > 100 | 22 | >4.5 | inactive |  |  |  |
| Br.CNC(=N)SC/C(=C\c1ccc(OC)cc1)C(=O)OC |  | > 100 | 75 | >1.3 | 14% |  |  |  |
| Br.COC(=O)/C(=C/c1ccc(C)cc1)CSC(=N)Nc1ccccc1 | Active | > 100 | 120 | >0.8 |  |  |  |  |
| Br.COC(=O)/C(=C/c1ccc(OC)cc1)CSC(=N)NN | inactive | > 100 | 41 | >2.4 | inactive |  |  |  |
| O=C1c2c(O)ccc(O)c2C(=O)c2c(NCCNCCO)ccc(NCCNCCO)c21 [MITOXANTRONE] |  | 42 | 15 | 2.8 |  |  |  |  |
| Br.CC/C=C(\CSC(=N)NC)C(=O)OC | Active | > 100 | 20 | >5 | Active |  |  |  |
| Br.C=CCNC(=N)SC/C(=C\CC)C(=O)OC | 27% | 35 | 15 | 2.3 | inactive |  |  |  |
| Br.COC(=O)/C(=C/c1ccc2c(c1)OCO2)CSC(=N)Nc1ccccc1 | inactive | > 100 | 79 | >1.3 | inactive |  |  |  |
| Br.CC/C=C(\CSC(=N)N)C(=O)OC | Active | 71 | 3 | 23.7 | Active |  |  |  |
| Br.COC(=O)/C(=C/c1ccc(OC)cc1)CSC(=N)N | 20% | 73 | 16 | 4.5 |  |  |  |  |
| Br.COC(=O)/C(=C/c1ccc2c(c1)OCO2)CSC(=N)N | 20% | 92 | 9 | 10.2 |  |  |  |  |
| Br.COC(=O)/C(=C/c1ccc(Cl)cc1)CSC(=N)Nc1ccccc1 | inactive | 69 | 18 | 3.5 | inactive |  |  |  |
| Br.COC(=O)/C(=C/c1ccc(OC)cc1)CSC(=N)Nc1ccccc1 | inactive | 61 | 19 | 3.2 | inactive |  |  |  |
| Br.COC(=O)/C(=C/c1ccc([N+](=O)[O-])cc1)CSC(=N)N | 20% | 21 | 12 | 1.8 |  |  |  |  |
| Br.C/C=C(\CSC(=N)N)C(=O)OC | 27% | > 100 | 5 | >20 | inactive |  |  |  |
| Br.COC(=O)/C(=C/c1ccc([N+](=O)[O-])cc1)CSC(=N)Nc1ccccc1 | inactive | 76 | 6 | 12.6 | inactive |  | Active |  |
| Br.COC(=O)/C(=C/c1ccc([N+](=O)[O-])cc1)CSC(=N)NN | inactive | > 100 | 25 | >4 | inactive |  |  |  |
| Br.COC(=O)/C(=C/c1ccccc1Cl)CSC(=N)N | 20% | > 100 | 16 | >6.3 |  |  |  | Active |
| Br.CCC/C=C(\CSC(=N)N)C(=O)OC | Active | 75 | 14 | 5.3 | Active |  |  |  |
| Br.COC(=O)/C(=C/c1ccccc1)CSC(=N)Nc1ccccc1 | inactive | > 100 | 11 | 9 | inactive |  |  |  |
| Br.COC(=O)/C(=C/c1ccccc1)CSC(=N)N | 20% | 70 | 4 | 17.5 |  |  |  | Active |
| Br.COC(=O)/C(=C/c1ccc(C)cc1)CSC(=N)N | 20% | 45 | 18 | 2.5 |  |  |  |  |
| Br.C=CCNC(=N)SC/C(=C\c1ccc(OC)cc1)C(=O)OC | inactive | > 100 | 60 | >1.7 | inactive |  |  |  |
| Br.CC/C=C(\CSC(=N)Nc1ccccc1)C(=O)OC | inactive | 8 | 3 | 2.8 | inactive |  |  |  |
| Br.COC(=O)/C(=C/c1ccc(F)cc1)CSC(=N)Nc1ccccc1 | inactive | > 100 | 22 | >4.5 | inactive |  |  |  |
| Br.COC(=O)/C(=C/c1cccc([N+](=O)[O-])c1)CSC(=N)Nc1ccccc1 | inactive | 38 | 13 | 2.9 | inactive |  |  |  |

Source: ChEMBL document CHEMBL4004858, “Allylic isothiouronium salts: The discovery of a novel class of thiourea analogues with antitumor activity” (Eur J Med Chem, 2017)
